This note sets out measurements from ChEMBL document CHEMBL5331098, “Nanomolar β-glucosidase and β-galactosidase inhibition by enantiomeric α-1-C-alkyl-1,4-dideoxy-1,4-imino-arabinitol derivatives” (Eur J Med Chem, 2023).

One assay has as its system Penicillium decumbens. Description: Inhibition of Penicillium decumbens alpha-L-rhamnosidase assessed as reduction of p-nitrophenol release using p-nitrophenyl-glycoside as substrate at 1000 uM by spectrophotometric analysis relative to control.
The nature of assay [1]: Inhibition of human lysosomal beta-glucosidase assessed as reduction of p-nitrophenol release using p-nitrophenyl glycoside as substrate by spectrophotometric analysis.
The species named for another assay is Rattus norvegicus. Description: Inhibition of rat intestinal maltase assessed as D-glucose release using maltose as substrate at pH 6.8 at 1000 uM by colorimetric method relative to control.
Assay [2] addresses Alpha-glucosidase (Saccharomyces cerevisiae S288c) (UniProt P53341+P38158+P07265). Description: Inhibition of yeast alpha-glucosidase assessed as reduction of p-nitrophenol release using p-nitrophenyl glycoside as substrate at 1000 uM by spectrophotometric analysis relative to control. Format: protein assay.
Assay [3] concerns the target T1, Tissue alpha-L-fucosidase (Bos taurus) (UniProt Q2KIM0).
T1 sequence (whole entry): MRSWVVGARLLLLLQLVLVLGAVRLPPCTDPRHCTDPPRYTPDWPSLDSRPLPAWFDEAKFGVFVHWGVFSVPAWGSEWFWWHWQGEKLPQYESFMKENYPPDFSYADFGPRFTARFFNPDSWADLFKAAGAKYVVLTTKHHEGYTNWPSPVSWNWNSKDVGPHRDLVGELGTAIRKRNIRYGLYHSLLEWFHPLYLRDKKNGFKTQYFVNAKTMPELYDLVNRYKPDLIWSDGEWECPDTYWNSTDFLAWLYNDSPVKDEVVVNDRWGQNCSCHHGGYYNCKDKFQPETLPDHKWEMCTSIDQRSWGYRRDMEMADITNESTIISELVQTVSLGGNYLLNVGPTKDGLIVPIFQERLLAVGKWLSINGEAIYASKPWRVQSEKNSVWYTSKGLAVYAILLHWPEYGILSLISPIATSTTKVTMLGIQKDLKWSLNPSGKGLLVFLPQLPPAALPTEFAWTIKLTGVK
Description: Inhibition of bovine kidney alpha-L-fucosidase assessed as reduction of p-nitrophenol release using p-nitrophenyl glycoside as substrate at 1000 uM by spectrophotometric analysis relative to control.

In assay [4] the target is Alpha-galactosidase (Coffea arabica) (UniProt Q42656). Description: Inhibition of coffee beans alpha-galactosidase assessed as reduction of p-nitrophenol release using p-nitrophenyl glycoside as substrate at 1000 uM by spectrophotometric analysis relative to control.
The species entered for the next assay is Bos taurus. Description: Inhibition of bovine liver beta-glucuronidase assessed as reduction of p-nitrophenol release using p-nitrophenyl-glycoside as substrate at 1000 uM by spectrophotometric analysis relative to control.
Another assay is filed under the species Sus scrofa. Description: Inhibition of porcine kidney alpha/alpha-trehalase assessed as reduction of p-nitrophenol release using p-nitrophenyl glycoside as substrate at 1000 uM by spectrophotometric analysis relative to control.
The nature of assay [5]: Inhibition of snail beta-mannosidase assessed as reduction of p-nitrophenol release using p-nitrophenyl glycoside as substrate by spectrophotometric analysis. Set-up: species or system Helix pomatia.
A short description of assay [6]: Inhibition of Aspergillus niger amyloglucosidase assessed as reduction of p-nitrophenol release using p-nitrophenyl-glycoside as substrate by spectrophotometric analysis.
The nature of assay [7]: Inhibition of almond beta-glucosidase assessed as reduction of p-nitrophenol release using p-nitrophenyl glycoside as substrate by spectrophotometric analysis. The arrangement: species or system Prunus dulcis.
The subject of the next assay is Oryza sativa. Description: Inhibition of rice alpha-glucosidase assessed as reduction of p-nitrophenol release using p-nitrophenyl glycoside as substrate at 1000 uM by spectrophotometric analysis relative to control.
Another assay concerns the target Beta-glucuronidase (Escherichia coli (strain K12), UniProt P05804). Description: Inhibition of Escherichia coli beta-glucuronidase assessed as reduction of p-nitrophenol release using p-nitrophenyl-glycoside as substrate by spectrophotometric analysis.
Assay [8] is described as follows: Inhibition of bovine liver beta-glucosidase assessed as reduction of p-nitrophenol release using p-nitrophenyl glycoside as substrate by spectrophotometric analysis. The arrangement: species or system Bos taurus.
Assay [9] concerns the target T2, Alpha-mannosidase (Canavalia ensiformis) (UniProt C0HJB3).
T2 sequence (whole entry): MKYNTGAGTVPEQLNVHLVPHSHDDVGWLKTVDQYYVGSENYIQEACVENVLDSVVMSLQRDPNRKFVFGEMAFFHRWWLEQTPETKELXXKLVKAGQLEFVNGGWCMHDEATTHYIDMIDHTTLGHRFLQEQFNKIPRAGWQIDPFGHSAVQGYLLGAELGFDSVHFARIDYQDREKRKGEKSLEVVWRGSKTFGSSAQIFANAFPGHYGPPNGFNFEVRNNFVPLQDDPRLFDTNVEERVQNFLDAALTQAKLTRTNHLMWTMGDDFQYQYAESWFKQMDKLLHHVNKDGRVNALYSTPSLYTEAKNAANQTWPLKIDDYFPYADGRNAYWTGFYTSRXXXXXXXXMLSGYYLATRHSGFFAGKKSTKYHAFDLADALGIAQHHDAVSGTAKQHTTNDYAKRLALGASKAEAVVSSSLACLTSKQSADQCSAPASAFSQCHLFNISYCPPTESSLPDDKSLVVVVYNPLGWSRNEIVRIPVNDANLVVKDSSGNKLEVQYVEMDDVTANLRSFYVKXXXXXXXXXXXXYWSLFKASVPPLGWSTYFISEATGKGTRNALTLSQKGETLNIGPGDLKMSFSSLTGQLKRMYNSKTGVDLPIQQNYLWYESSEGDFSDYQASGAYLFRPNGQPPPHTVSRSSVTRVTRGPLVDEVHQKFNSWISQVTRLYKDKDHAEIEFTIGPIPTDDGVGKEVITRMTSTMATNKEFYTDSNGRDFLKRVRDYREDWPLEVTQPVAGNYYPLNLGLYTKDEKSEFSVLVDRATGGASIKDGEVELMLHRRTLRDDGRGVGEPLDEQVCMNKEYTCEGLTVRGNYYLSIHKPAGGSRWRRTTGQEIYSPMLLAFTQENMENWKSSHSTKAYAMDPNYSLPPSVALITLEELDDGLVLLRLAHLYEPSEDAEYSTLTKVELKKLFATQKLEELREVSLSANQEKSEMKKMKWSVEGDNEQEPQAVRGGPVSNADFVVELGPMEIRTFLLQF
Description: Inhibition of jack bean alpha-mannosidase assessed as reduction of p-nitrophenol release using p-nitrophenyl glycoside as substrate at 1000 uM by spectrophotometric analysis relative to control.

The nature of assay [10]: Inhibition of bovine liver beta-galactosidase assessed as reduction of p-nitrophenol release using p-nitrophenyl glycoside as substrate by spectrophotometric analysis. The arrangement: species or system Bos taurus.
The target in assay [11] is Beta-glucuronidase (Escherichia coli (strain K12)) (UniProt P05804). Description: Inhibition of Escherichia coli beta-glucuronidase assessed as reduction of p-nitrophenol release using p-nitrophenyl-glycoside as substrate at 1000 uM by spectrophotometric analysis relative to control.
A short description of assay [12]: Inhibition of rat intestinal maltase assessed as D-glucose release using maltose as substrate at pH 6.8 by colorimetric method.
The test system of the next assay is Aspergillus niger. Description: Inhibition of Aspergillus niger amyloglucosidase assessed as reduction of p-nitrophenol release using p-nitrophenyl-glycoside as substrate at 1000 uM by spectrophotometric analysis relative to control.
A further assay deals with Prunus dulcis. Description: Inhibition of almond beta-glucosidase assessed as reduction of p-nitrophenol release using p-nitrophenyl glycoside as substrate at 1000 uM by spectrophotometric analysis relative to control.
The test system of a further assay is Helix pomatia. Description: Inhibition of snail beta-mannosidase assessed as reduction of p-nitrophenol release using p-nitrophenyl glycoside as substrate at 1000 uM by spectrophotometric analysis relative to control.
A short description of assay [13]: Inhibition of rice alpha-glucosidase assessed as reduction of p-nitrophenol release using p-nitrophenyl glycoside as substrate by spectrophotometric analysis. Set-up: species or system Oryza sativa.
In another assay the target is Alpha-glucosidase (Saccharomyces cerevisiae S288c, UniProt P53341+P38158+P07265). Description: Inhibition of yeast alpha-glucosidase assessed as reduction of p-nitrophenol release using p-nitrophenyl glycoside as substrate by spectrophotometric analysis. It is filed as protein assay.

Chain of Alpha-galactosidase (Coffea arabica) (Q42656 16-378 limits assumed): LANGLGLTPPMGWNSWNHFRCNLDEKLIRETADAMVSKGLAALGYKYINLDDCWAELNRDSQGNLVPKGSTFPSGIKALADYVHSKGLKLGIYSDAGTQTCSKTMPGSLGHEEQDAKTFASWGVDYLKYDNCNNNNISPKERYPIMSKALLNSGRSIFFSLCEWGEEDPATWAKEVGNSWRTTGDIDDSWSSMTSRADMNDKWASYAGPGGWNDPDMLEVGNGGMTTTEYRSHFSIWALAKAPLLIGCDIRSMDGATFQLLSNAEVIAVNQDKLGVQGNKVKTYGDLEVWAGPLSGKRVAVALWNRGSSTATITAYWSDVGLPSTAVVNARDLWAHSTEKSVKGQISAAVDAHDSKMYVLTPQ
Chain of Beta-glucuronidase (Escherichia coli (strain K12)) (P05804 whole entry, looked up): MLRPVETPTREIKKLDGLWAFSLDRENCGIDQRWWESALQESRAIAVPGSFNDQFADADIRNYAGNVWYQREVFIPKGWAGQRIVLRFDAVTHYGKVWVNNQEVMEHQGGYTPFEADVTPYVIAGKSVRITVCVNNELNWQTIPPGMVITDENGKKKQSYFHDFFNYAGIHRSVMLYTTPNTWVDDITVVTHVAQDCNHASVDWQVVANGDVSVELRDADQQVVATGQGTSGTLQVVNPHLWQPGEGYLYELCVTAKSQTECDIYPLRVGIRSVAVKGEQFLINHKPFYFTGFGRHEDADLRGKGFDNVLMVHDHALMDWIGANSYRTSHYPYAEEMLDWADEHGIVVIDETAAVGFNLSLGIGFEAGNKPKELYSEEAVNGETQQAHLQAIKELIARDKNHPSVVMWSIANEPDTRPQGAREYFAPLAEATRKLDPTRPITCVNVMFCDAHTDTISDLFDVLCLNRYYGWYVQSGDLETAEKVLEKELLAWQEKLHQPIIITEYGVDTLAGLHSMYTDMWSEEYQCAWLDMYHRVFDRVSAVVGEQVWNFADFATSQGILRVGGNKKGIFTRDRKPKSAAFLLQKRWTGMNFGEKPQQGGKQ
Chain of Beta-glucuronidase (P05804 whole entry): as the sequence (P05804 whole entry, looked up) above

Consider `OC[C@H]1N[C@H]([C@H](O)CCCCCCc2ccc(Cl)cc2)[C@@H](O)[C@@H]1O`, for which the inhibition in the assay on Penicillium decumbens came out at 1.3%; in the assay listed under Rattus norvegicus, 18.2%; in assay [2], 42.3%; in assay [3] it was 0.6%; in assay [4] it was 0%; in the assay listed under Bos taurus, 0%. For the same molecule, the figures for the inhibition (in the assay listed under Sus scrofa; in the assay with Oryza sativa; in [9]) were 6%, 8.9% and 4.5%, respectively. Further, the IC50 in assay [1] turned out to be 2.1 µM; in [5], 37 µM; in assay [6], 32 µM; in assay [7], 120 nM; at Beta-glucuronidase it was 41 µM; in [8], 5 nM. The IC50 in [10] came to 3 nM.

Turning to `CC(C)(C)c1ccc(CCCCCC[C@H](O)[C@@H]2N[C@@H](CO)[C@H](O)[C@H]2O)cc1`, the inhibition in assay [11] came to 15.5%; in the assay with Penicillium decumbens, 4.2%; in assay [2] it was 9.6%; in assay [3] it was 0%; in assay [4], 2.6%; in the assay filed under Bos taurus it was 0%. The inhibition in the assay filed under Sus scrofa was determined as 0.9%; in the assay with Aspergillus niger, 7.1%; with Prunus dulcis it was 44.7%; in the assay on Helix pomatia, 0%; in assay [9], 0.8%. Besides, the IC50 in assay [12] is 650 nM; in assay [1], 32 µM; in assay [8], 7700 nM; in [13], 0.86 µM; in [10] it was 3900 nM.

With `CC(C)(C)c1ccc(CCCCCC[C@H](O)[C@H]2N[C@H](CO)[C@@H](O)[C@@H]2O)cc1`, the inhibition was determined as 6.2% in the assay on Penicillium decumbens; 14.1% in the assay filed under Rattus norvegicus; 27.6% in assay [2]; 0% in [3]; 0.9% in assay [4]; 0% in the assay filed under Bos taurus. In addition, the inhibition was found to be 0% in the assay filed under Sus scrofa, 48.6% in the assay on Oryza sativa and 0% in [9]. In addition, the IC50 in [1] was 3.2 µM; in assay [5], 96 µM; in assay [6], 63 µM; in assay [7] it was 360 nM; on Beta-glucuronidase, 23 µM; in assay [8], 50 nM. In addition, in [10], the IC50 stood at 14 nM.

Turning to `OC[C@@H]1N[C@@H]([C@@H](O)CCCCCCc2ccc(Cl)cc2)[C@H](O)[C@H]1O`, the inhibition in assay [11] is 6.8%; in the assay with Penicillium decumbens, 0%; in assay [2], 10%; in [3] it was 6.3%; in assay [4], 3.6%; in the assay filed under Bos taurus it was 0%. The inhibition in the assay listed under Sus scrofa is 0%; in the assay with Aspergillus niger it was 0%; in the assay with Prunus dulcis, 37.1%; in the assay on Helix pomatia, 0%; in [9] it was 0%. Further, the IC50 in assay [12] came to 330 nM; in [1], 5.9 µM; in assay [8], 8000 nM; in assay [13], 4.3 µM; in assay [10] it was 3200 nM.

Turning to `Cc1ccc(CCCCCC[C@@H](O)[C@H]2N[C@H](CO)[C@@H](O)[C@@H]2O)cc1`, the inhibition in the assay with Penicillium decumbens was found to be 7%; in the assay filed under Rattus norvegicus, 10.5%; in assay [2] it was 23.5%; in [3] it was 0%; in assay [4], 0.9%; in the assay filed under Bos taurus, 0%. Also, the figures for the inhibition (in the assay listed under Sus scrofa; with Oryza sativa; in [9]) were 0%, 15% and 5.9%, respectively. Besides, the IC50 in assay [1] stood at 1.1 µM; in assay [5], 32 µM; in assay [6] it was 23 µM; in assay [7], 82 nM; at Beta-glucuronidase it was 13 µM; in assay [8] it was 3 nM. Further, the half-inhibitory concentration (IC50) in assay [10] amounted to 2 nM.

As for `CC(C)(C)c1ccc(CCCCCC[C@@H](O)[C@H]2N[C@H](CO)[C@@H](O)[C@@H]2O)cc1.Cl`, the IC50 on Alpha-glucosidase stood at 57 µM; in assay [1] it was 0.81 µM; in [5], 14 µM; in assay [6], 16 µM; in [7] it was 64 nM; on Beta-glucuronidase, 2.9 µM. In addition, the values for the IC50 in [8] and in [10] were 4 nM and 2 nM, respectively. Also, the inhibition in the assay on Penicillium decumbens was 4.8%; in the assay listed under Rattus norvegicus it was 48.7%; in assay [4] it was 5.5%; in the assay listed under Bos taurus, 4.3%; in the assay listed under Sus scrofa it was 2.3%; in the assay on Oryza sativa, 36.6%. Besides, the inhibition in [9] stood at 8.7%.

In the case of `OC[C@@H]1N[C@@H]([C@H](O)CCCCCCc2ccc(F)cc2)[C@H](O)[C@H]1O`, the inhibition in assay [11] was determined as 14.1%; with Penicillium decumbens, 2.5%; in assay [2] it was 36.2%; in assay [3], 1.5%; in assay [4], 1.6%; in the assay filed under Bos taurus it was 0%. Besides, the inhibition in the assay filed under Sus scrofa turned out to be 0%; in the assay on Aspergillus niger, 0%; in the assay on Prunus dulcis, 27.4%; in the assay on Helix pomatia, 2.9%; in assay [9], 4.8%. Also, the IC50 turned out to be 35000 nM in assay [12]; 66 µM in assay [1]; 37000 nM in assay [8]; 92 µM in assay [13]; 11000 nM in assay [10].

A word on the inhibition: it is how much of the control response was suppressed. What is called IC50 is the concentration needed to halve the response being measured.
